Values quoted from earlier work as cited in patent US6723530B1, “Polynucleotides encoding proexendin, and methods and uses thereof” (Amylin Pharmaceuticals, Inc., priority 1997, dated 2004).
No end group written: not given here.

Experiments:
[1] = test system: guinea pig acinar cell preparations
[2] = test system: cultured islet cell lines; conditions: cultured islet cell lines in vitro

| Substance | cAMP levels [1] | mode of action towards GLP-1 (agonist / antagonist) (GLP-1) | cAMP accumulation [2] | glucose-dependent insulin secretion [2] | insulin gene expression [2] |
| --- | --- | --- | --- | --- | --- |
| exendin 4 | increased | strong agonist | increase | stimulate | increase |
| exendin 4(9-39)NH3: truncated exendin 4, competitive antagonist of both exendin 4 and GLP-1 | – | competitive antagonist | – | – | – |
| truncated GLP-1[7-36)-amide: truncated mammalian GLP-1 peptide amide (HAEGTFTSDVSSYLEGQAAKEFIAWLVKGR-NH2) | increased | – | – | – | – |
